Experimental data: ChEMBL document CHEMBL1129670, “Synthesis and structure-activity relationships of N-propyl-N-(4-pyridinyl)-1H-indol-1-amine (besipirdine) and related analogs as potential therapeutic agents for Alzheimer's disease” (J Med Chem, 1996)

How the values were obtained:
[1] = target: T1, Adrenergic receptor alpha-1 (Rattus norvegicus, UniProt P15823+P23944+P43140); assay: Inhibitory activity against [3H]WB-4101 binding to Alpha-1 adrenergic receptor in rat whole brain membrane; format: cell membranes
T1 sequence (P15823 whole entry): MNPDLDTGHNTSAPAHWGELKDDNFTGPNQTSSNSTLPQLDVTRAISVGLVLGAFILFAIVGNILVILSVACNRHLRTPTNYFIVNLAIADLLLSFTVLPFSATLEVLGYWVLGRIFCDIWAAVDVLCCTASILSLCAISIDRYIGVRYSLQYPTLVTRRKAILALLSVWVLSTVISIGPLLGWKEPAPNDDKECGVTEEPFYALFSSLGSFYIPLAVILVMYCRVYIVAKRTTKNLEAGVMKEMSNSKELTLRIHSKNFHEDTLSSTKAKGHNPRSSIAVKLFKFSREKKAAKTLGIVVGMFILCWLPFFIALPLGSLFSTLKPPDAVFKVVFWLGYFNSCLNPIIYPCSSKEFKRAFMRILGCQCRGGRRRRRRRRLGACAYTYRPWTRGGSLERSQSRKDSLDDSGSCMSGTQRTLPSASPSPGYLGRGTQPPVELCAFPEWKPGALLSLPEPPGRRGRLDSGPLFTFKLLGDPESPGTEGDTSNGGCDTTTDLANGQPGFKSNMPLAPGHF
T1 sequence (P23944 whole entry): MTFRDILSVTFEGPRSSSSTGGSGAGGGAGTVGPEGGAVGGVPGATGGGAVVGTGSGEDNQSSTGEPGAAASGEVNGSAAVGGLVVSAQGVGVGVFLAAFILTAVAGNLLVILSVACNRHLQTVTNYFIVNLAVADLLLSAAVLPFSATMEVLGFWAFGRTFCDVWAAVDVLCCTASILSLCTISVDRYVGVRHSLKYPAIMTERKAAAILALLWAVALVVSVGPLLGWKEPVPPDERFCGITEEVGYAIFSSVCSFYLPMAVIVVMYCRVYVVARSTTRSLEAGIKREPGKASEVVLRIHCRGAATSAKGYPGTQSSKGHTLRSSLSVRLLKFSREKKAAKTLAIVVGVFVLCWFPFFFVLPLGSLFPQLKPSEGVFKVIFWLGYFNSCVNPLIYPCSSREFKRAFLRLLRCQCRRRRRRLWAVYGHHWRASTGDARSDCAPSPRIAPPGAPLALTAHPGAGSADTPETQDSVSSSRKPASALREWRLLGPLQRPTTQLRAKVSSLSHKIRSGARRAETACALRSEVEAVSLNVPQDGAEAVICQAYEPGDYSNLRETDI
T1 sequence (P43140 whole entry): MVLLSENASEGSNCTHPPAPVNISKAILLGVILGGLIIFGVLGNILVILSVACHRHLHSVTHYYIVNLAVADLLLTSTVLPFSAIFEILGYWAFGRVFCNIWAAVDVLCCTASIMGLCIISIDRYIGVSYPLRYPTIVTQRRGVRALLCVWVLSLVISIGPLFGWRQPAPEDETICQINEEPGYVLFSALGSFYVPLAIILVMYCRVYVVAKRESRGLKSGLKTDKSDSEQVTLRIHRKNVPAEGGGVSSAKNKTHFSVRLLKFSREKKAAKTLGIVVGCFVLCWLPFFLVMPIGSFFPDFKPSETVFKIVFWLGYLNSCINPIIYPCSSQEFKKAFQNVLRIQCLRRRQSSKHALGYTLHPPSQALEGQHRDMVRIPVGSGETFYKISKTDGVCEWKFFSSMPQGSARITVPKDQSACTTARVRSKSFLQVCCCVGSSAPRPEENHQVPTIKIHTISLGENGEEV

[2] = test system: Mus musculus; assay: Antagonistic activity against Scopolamine induced behavioral deficits in mice at dose 0.02 mg/kg sc; format: functional; conditions: route subcutaneous
[3] = test system: Mus musculus; assay: Antagonistic activity against Scopolamine induced behavioral deficits in mice at dose 0.08 mg/kg sc; format: functional; conditions: route subcutaneous
[4] = target: Muscarinic acetylcholine receptor; format: cell membranes, Membrane
Description: Inhibition of [3H]quinuclidinyl benzilate (QNB) binding from rat forebrain membranes in the presence of Zn

[5] = target: T2, Acetylcholinesterase (Rattus norvegicus, UniProt P37136)
T2 sequence (P37136 whole entry): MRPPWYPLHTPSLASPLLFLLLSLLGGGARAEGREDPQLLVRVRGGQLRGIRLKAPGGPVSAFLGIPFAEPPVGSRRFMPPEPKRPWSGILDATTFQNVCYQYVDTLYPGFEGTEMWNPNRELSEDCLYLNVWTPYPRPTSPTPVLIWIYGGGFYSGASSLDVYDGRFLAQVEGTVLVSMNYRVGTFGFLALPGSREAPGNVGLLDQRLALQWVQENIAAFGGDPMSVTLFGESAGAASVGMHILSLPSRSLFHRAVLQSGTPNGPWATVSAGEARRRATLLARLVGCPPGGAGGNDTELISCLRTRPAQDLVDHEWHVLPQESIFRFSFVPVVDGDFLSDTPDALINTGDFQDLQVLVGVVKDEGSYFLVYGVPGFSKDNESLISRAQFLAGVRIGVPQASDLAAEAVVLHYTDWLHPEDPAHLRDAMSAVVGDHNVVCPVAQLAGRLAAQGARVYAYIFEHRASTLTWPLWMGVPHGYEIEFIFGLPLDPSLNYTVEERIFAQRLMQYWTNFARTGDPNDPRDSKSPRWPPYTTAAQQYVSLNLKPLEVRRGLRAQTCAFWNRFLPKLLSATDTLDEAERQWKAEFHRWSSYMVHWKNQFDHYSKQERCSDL
Description: Inhibitory activity against acetylcholinesterase in rat striatal preparation

[6] = target: Sodium-dependent noradrenaline transporter (Homo sapiens, UniProt P23975)
Chain of Sodium-dependent noradrenaline transporter (P23975 whole entry): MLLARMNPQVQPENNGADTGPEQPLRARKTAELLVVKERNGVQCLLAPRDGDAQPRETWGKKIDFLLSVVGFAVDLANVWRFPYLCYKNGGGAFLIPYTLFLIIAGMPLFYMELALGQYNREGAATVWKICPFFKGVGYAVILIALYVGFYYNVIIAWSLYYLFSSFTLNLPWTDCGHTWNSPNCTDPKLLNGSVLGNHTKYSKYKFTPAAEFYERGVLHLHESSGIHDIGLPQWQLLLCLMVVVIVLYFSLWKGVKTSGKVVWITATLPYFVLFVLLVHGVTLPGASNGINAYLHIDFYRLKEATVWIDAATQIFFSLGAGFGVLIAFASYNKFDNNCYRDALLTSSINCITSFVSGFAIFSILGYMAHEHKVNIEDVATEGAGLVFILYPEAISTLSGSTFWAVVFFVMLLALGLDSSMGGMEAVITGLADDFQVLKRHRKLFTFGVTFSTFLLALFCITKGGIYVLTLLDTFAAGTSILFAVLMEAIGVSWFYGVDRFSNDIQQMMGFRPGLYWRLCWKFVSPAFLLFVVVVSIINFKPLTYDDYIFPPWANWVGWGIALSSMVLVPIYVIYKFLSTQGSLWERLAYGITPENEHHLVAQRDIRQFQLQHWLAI
Description: Inhibitory activity against norepinephrine (NE) uptake in rat whole brain synaptosome preparation

[7] = organism: Mus musculus; assay: animal or person
Description: Effective dose against administration in mice

SMILES	IC50 [1]	Response [2]	Response [3]	IC50 [4]	IC50 [5]	IC50 [6]	ED50 [7]
CN(c1ccncc1)n1ccc2ccccc21	1200 nM	33%	33%	5100 nM	> 100000 nM	1000 nM	3.5 mg/kg
c1ccc2c(c1)ccn2Nc1ccncc1	510 nM	27%	20%	16000 nM	> 100000 nM	2500 nM	3 mg/kg
CCCN(c1ccncc1)n1ccc2ccccc21 [BESIPIRDINE]	10000 nM	24%	33%	940 nM	> 100000 nM	430 nM	3.1 mg/kg
